In the CheMixHub viscosity set:

Assay: xn = mol fraction of the nth substance listed

O=[N+]([O-])[O-].O=[N+]([O-])[O-].[Sr+2] + O
viscosity [mPa·s], 100 kPa
Details	x1 = 0.004	x1 = 0.009	x1 = 0.02	x1 = 0.04	x1 = 0.05
298.15 K	0.9435	1.029	1.226	1.628	2.52
323.15 K	0.589	0.639	0.775	1.012	1.524

CC(O)C(C)O (stereo not given) + O=C1CCCN1
Details	viscosity [mPa·s]
308.15 K, 101 kPa, x2 = 0.5898	14.65

COC(=O)OCC(F)(F)F + O=C1OCCO1
313.15 K, 100 kPa
Details	viscosity [mPa·s]
x2 = 0.1011	0.826
x2 = 0.1994	0.92
x2 = 0.3006	1.03
x2 = 0.3997	1.142
x2 = 0.5004	1.264
x2 = 0.5989	1.39
x2 = 0.7023	1.524
x2 = 0.7988	1.652
x2 = 0.9	1.786

Fc1ccccc1 + O=CN1CCOCC1
viscosity [mPa·s], 101 kPa
Details	x2 = 0.0946	x2 = 0.1904	x2 = 0.2873	x2 = 0.3854	x2 = 0.4847	x2 = 0.5853	x2 = 0.687	x2 = 0.79	x2 = 0.8944
303.15 K	0.72	0.957	1.245	1.595	2.028	2.579	3.265	4.113	5.175
308.15 K	0.677	0.895	1.157	1.466	1.846	2.325	2.919	3.64	4.539
313.15 K	0.641	0.845	1.079	1.361	1.711	2.139	2.669	3.314	4.111

O=Cc1ccccc1 + O=[N+]([O-])c1ccccc1
303.15 K, 101 kPa
Details	viscosity [mPa·s]
x1 = 0.3043	1.495
x1 = 0.6049	1.405
x1 = 0.9018	1.295

O=Cc1ccccc1 + OCc1ccccc1
293.15 K, 100 kPa
Details	viscosity [mPa·s]
x2 = 0.1032	1.695
x2 = 0.2	1.882
x2 = 0.3007	2.114
x2 = 0.4023	2.322
x2 = 0.4989	2.633
x2 = 0.6013	3.114
x2 = 0.688	3.591
x2 = 0.8	4.366
x2 = 0.8984	5.395

[Br-].[Br-].[Br-].[Br-].[Sn+4] + Oc1ccccc1
313.15 K, 101 kPa
Details	viscosity [mPa·s]
x1 = 0.1	4.21
x1 = 0.2	3.817
x1 = 0.3	3.351
x1 = 0.4	3.034
x1 = 0.5	2.762
x1 = 0.6	2.56
x1 = 0.7	2.387
x1 = 0.8	2.262
x1 = 0.9	2.137

c1ccc(Nc2ccccc2)cc1 + Oc1ccccc1
viscosity [mPa·s], 101 kPa
Details	303.15 K	313.15 K	323.1 K
x1 = 0.21	–	–	3.825
x1 = 0.444	–	–	4.362
x1 = 0.683	–	–	5.01
x2 = 0.133	12.57	7.95	–
x2 = 0.2435	11.65	7.43	–
x2 = 0.3531	10.72	6.93	–
x2 = 0.4454	10.03	6.52	–
x2 = 0.5306	9.47	6.2	–
x2 = 0.6104	8.98	5.91	–
x2 = 0.6735	8.61	5.68	–
x2 = 0.7266	8.28	5.51	–
x2 = 0.7989	7.91	5.28	–
x2 = 0.8548	7.65	5.13	–
x2 = 0.908	7.42	4.98	–
x2 = 0.9541	7.255	4.845	–

O=C(O)C(Cl)Cl + [Cl-].[Cl-].[Cl-].[Cl-].[Sn+4]
viscosity [mPa·s], 101 kPa
Details	x2 = 0.1	x2 = 0.2027	x2 = 0.3211	x2 = 0.5002	x2 = 0.805
308.15 K	3.657	2.621	2.121	1.445	0.831
323.15 K	2.609	1.982	1.63	1.09	0.705
